The text below walks through data of ChEMBL document CHEMBL3507680, “University of Dundee, Gates Library screen for HepG2 cell viability”.

Each structure is given as a SMILES string.

A short description of the series: Human HepG2 cell viability assay in 384 well format. The class given is toxicity, cell-based. Also on record: dose 125 nL, time 70.5 hour; cytotoxicity at 70.5 h: concentration not given beside the values. The conditions noted are these: HepG2 cells, read-out: Inhibition.

`CCOCC1CN(C(=O)c2ccoc2)Cc2cnn(C)c21` (stereo not drawn): the cytotoxicity at 70.5 h amounted to 13.6%.

For the molecule `O=C(c1ccco1)N1Cc2cnn(CC3CC3)c2C(COCC2CC2)C1` (stereo not drawn), the cytotoxicity at 70.5 h turned out to be 15.4%.

Take `Cn1ncc2c1C(COCC1CC1)CN(C(=O)c1ccoc1)C2` (stereo not drawn): the cytotoxicity at 70.5 h came out at 14.1%.

On to `CCn1nnc2c1C(COCC(=O)N(C)C)CN(Cc1ccoc1)C2` (stereo not drawn), for which the cytotoxicity at 70.5 h is -0.882%.

With `O=C(c1ccsc1)N1C[C@@H]2CCN(C(=O)c3cscn3)[C@@H]2C1`, the cytotoxicity at 70.5 h was -6.91%.

`Cn1cc(-c2cnc(-c3ccnn3C)nc2)cc1C(=O)N1CCCC1`: the cytotoxicity at 70.5 h is -4.76%.

For the molecule `O=c1ccc2c(n1CCN1CCCC1)CCN(c1ncccn1)CC2`, the cytotoxicity at 70.5 h was -4.06%.

Take `CC(=O)N1CCO[C@@H]2CN(S(=O)(=O)c3ccc(F)cc3)CC[C@@H]2C1`: the cytotoxicity at 70.5 h is -6.92%.

Turning to `c1cnc(N2CCc3onc(CN4CCOCC4)c3C2)cn1`, the cytotoxicity at 70.5 h was -9.12%.

`COCC1COCCC12CCN(S(=O)(=O)c1ccccc1)CC2` (stereo not drawn): the cytotoxicity at 70.5 h is 0.595%.

Take `CC[C@H](C)Nc1nccc(-c2cnc3sc(C)cn3c2=O)n1`: the cytotoxicity at 70.5 h is -5.35%.

`NS(=O)(=O)NCc1cc(-c2ccc(C(F)(F)F)cc2)n[nH]1`: the cytotoxicity at 70.5 h is -5.31%.

For `N#Cc1ccc(Nc2nc3c(s2)C(=O)CN(CC2CC2)C3)cc1`, the cytotoxicity at 70.5 h is -4.09%.

As to `CN(C)c1ncc(-c2ccc(NC(=O)[C@@H]3CCCCN3)cc2)cn1`, the cytotoxicity at 70.5 h was -0.758%.

Turning to `CN(C)CCN1CCN(C)c2nc(-c3ccccc3)ncc2C1=O`, the cytotoxicity at 70.5 h is -9.02%.

For `c1cc(-c2c[nH]nc2C2CCCCC2)nc(N2CCCCCC2)n1`, the cytotoxicity at 70.5 h stood at 2.67%.

Take `CNC(=O)Cc1cc2nccc(-c3c(OC)cccc3OC)n2n1`: the cytotoxicity at 70.5 h is -7.19%.

`OC[C@H]1CCCN1c1nccc(-c2c[nH]nc2C2CCCCC2)n1`: the cytotoxicity at 70.5 h amounted to 2.37%.

Turning to `Cc1cn2c(=O)c(-c3ccnc(N[C@@H]4CCOC4)n3)cnc2s1`, the cytotoxicity at 70.5 h was -3.69%.

Consider `CC[C@H](C)[C@H](N)C(=O)Nc1nc(-c2cnc(N(C)C)nc2)cs1`, for which the cytotoxicity at 70.5 h is -0.629%.

In the case of `Cc1[nH]c2ccccc2c1-c1ccnc(NCCN2CCCCC2)n1`, the cytotoxicity at 70.5 h was -3.28%.

On to `CC(C)CC(=O)N1CC(=O)c2sc(NC3CCCCC3)nc2C1`, for which the cytotoxicity at 70.5 h was 1.17%.

As to `CN1CCN(c2nccc(-c3cncnc3C3CCCCC3)n2)CC1`, the cytotoxicity at 70.5 h is -5.17%.

On to `NCCSc1nccc(-c2cnc(C3CC3)nc2-c2ccco2)n1`, for which the cytotoxicity at 70.5 h is 21.8%.

For the molecule `OC[C@H]1CCCN1c1nccc(-c2cncnc2C2CCCCC2)n1`, the cytotoxicity at 70.5 h is -2.18%.

`CC[C@@H](CO)Nc1nccc(-c2c[nH]c3cc(C(=O)OC)ccc23)n1`: the cytotoxicity at 70.5 h was -2.08%.

Take `Cc1ncc(-c2ccnc(SCCN(C)C)n2)c(-c2ccco2)n1`: the cytotoxicity at 70.5 h worked out at 20.1%.

Turning to `Cc1csc2ncc(-c3ccnc(NC4CCOCC4)n3)c(=O)n12`, the cytotoxicity at 70.5 h amounted to 0.723%.

Consider `Cc1ncc(-c2ccnc(N3CCC[C@@H]3CO)n2)c(-c2cccnc2)n1`, for which the cytotoxicity at 70.5 h was -3.34%.

Consider `Cc1ccc(-c2ccnc3cc(CC(=O)N4CCN(C)CC4)nn23)cc1`, for which the cytotoxicity at 70.5 h was found to be 0.106%.

`CCNc1nc(-c2cccnc2)c(-c2ccnc(N3CCCC3)n2)s1`: the cytotoxicity at 70.5 h was -6.77%.

Turning to `CN1CCCN(c2nccc(-c3cncnc3C3CCCCC3)n2)CC1`, the cytotoxicity at 70.5 h was 20.6%.

On to `COCC(=O)N1CC(=O)c2sc(Nc3ccc(F)cc3F)nc2C1`, for which the cytotoxicity at 70.5 h worked out at 0.281%.

Take `NC(=O)C1CCN(c2nccc(-c3c[nH]nc3C3CCCCC3)n2)CC1`: the cytotoxicity at 70.5 h is -4.42%.

For `CC(=O)N1CCC(n2ccc(-c3cnc(N4CCOCC4)nc3)n2)CC1`, the cytotoxicity at 70.5 h was -5.97%.

Regarding `CC[C@H](C)[C@H](N)C(=O)N1CC(=O)c2sc(NC3CCCCC3)nc2C1`, the cytotoxicity at 70.5 h was 3.97%.

Turning to `CC(C)CC(=O)N1CC(=O)c2sc(Nc3ccc(F)cc3F)nc2C1`, the cytotoxicity at 70.5 h came to 0.35%.

With `CS(=O)(=O)NCc1cc(-c2cc(F)cc(F)c2)nc(N2CCCC2)n1`, the cytotoxicity at 70.5 h was -12.8%.

As to `Cc1csc2ncc(-c3ccnc(N4CCC[C@H](C(N)=O)C4)n3)c(=O)n12`, the cytotoxicity at 70.5 h worked out at 14.4%.

On to `CC(C)(C)Nc1nc(-c2cccnc2)c(-c2ccnc(NCCO)n2)s1`, for which the cytotoxicity at 70.5 h is -9.49%.

On to `Cc1sc2ncc(-c3ccnc(NC4CCN(C)CC4)n3)c(=O)n2c1C`, for which the cytotoxicity at 70.5 h is -2.25%.

Turning to `CN(c1nccc(-c2cnc3sc(Cl)cn3c2=O)n1)C1CCCCC1`, the cytotoxicity at 70.5 h is -3.38%.

On to `CCNc1nc(-c2cccnc2)c(-c2ccnc(NS(C)(=O)=O)n2)s1`, for which the cytotoxicity at 70.5 h was -8.33%.

Regarding `C[C@H](NS(C)(=O)=O)C(=O)NCc1cc(-c2ccco2)n(CC(F)(F)F)n1`, the cytotoxicity at 70.5 h is -4.57%.

Turning to `Fc1ccc(-c2n[nH]cc2-c2ccnc(NCCN3CCCC3)n2)cc1`, the cytotoxicity at 70.5 h was 24%.

For the molecule `COCCCNc1nccc(-c2c[nH][nH]c2=O)n1`, the cytotoxicity at 70.5 h came out at 22.8%.

For `CN1CCN(CC2CC2)C(=O)c2cnc(N3CCCC3)nc21`, the cytotoxicity at 70.5 h amounted to 15.9%.

Consider `CN1CCN(CC2CC2)C(=O)c2cnc(N3CCCCC3)nc21`, for which the cytotoxicity at 70.5 h worked out at 30.2%.

On to `COc1cc(OC)cc(-c2cc(CN)nc3ccnn23)c1`, for which the cytotoxicity at 70.5 h is -4.26%.

For `Cc1cnc(C(=O)N2Cc3ncn(C)c3C(COCC(C)C)C2)cn1` (stereo not drawn), the cytotoxicity at 70.5 h is -4.87%.

Regarding `CCN1Cc2ccccc2CC2(CCN(CC(=O)O)CC2)C1=O`, the cytotoxicity at 70.5 h worked out at 15.3%.

For `CN1Cc2ccccc2CC2(CCN(CCO)CC2)C1=O`, the cytotoxicity at 70.5 h was 18%.

As for `Cc1ccc(CN2CC[C@@H]3OCCN(S(C)(=O)=O)[C@H]3CC2)s1`, the cytotoxicity at 70.5 h was -3.31%.

Consider `CN(C)CCn1c2c(ccc1=O)CC(NC(=O)c1cnccn1)CC2` (stereo not drawn), for which the cytotoxicity at 70.5 h is -10.4%.

Consider `Cc1ccc(N2CCC3(CN(CCO)CCC3(F)F)C2)nn1` (stereo not drawn), for which the cytotoxicity at 70.5 h was -6.24%.

As for `OCCN1CCC(F)(F)C2(CCN(c3cnccn3)C2)C1` (stereo not drawn), the cytotoxicity at 70.5 h is -5.87%.

Regarding `COCC1CN(C(=O)c2ccoc2)Cc2cnn(CC3CCOCC3)c21` (stereo not drawn), the cytotoxicity at 70.5 h is -9.06%.

`Cc1ccc(N2CCC3(CN(Cc4cccs4)CCC3(F)F)C2)nn1` (stereo not drawn): the cytotoxicity at 70.5 h was -7.32%.

As for `COCCN1CCN(S(=O)(=O)c2ccccc2)Cc2cccnc21`, the cytotoxicity at 70.5 h was -5.54%.

Regarding `CN1CCO[C@@H]2CN(S(=O)(=O)c3cccs3)CC[C@@H]2C1`, the cytotoxicity at 70.5 h is -9.31%.

As for `Cc1ccc(N2CC[C@H](OCC3CC3)[C@@H]2Cc2cccnc2)nn1`, the cytotoxicity at 70.5 h was 1.2%.

For the molecule `c1cnc(N2CCO[C@@H]3CN(Cc4ccoc4)C[C@@H]3C2)nc1`, the cytotoxicity at 70.5 h came out at 4.32%.

Turning to `Cc1csc(NC(=O)[C@@H]2C[C@H]3[C@H](CCN3c3ncccn3)O2)n1`, the cytotoxicity at 70.5 h came out at 18.3%.

As to `CCOCc1nn(CC2CC2)c2c1CN(Cc1cccs1)CC2`, the cytotoxicity at 70.5 h is -6.81%.

Regarding `CCn1nnc2c1C(COCCN(C)C)CN(Cc1ccco1)C2` (stereo not drawn), the cytotoxicity at 70.5 h is 11.5%.

In the case of `Cc1ccc(N2CCC3(CN(Cc4ccncc4)CCC3(F)F)C2)nn1` (stereo not drawn), the cytotoxicity at 70.5 h is -1.36%.

Turning to `CN(C)CCn1c2c(ccc1=O)CCN(Cc1cnn(C)c1)CC2`, the cytotoxicity at 70.5 h amounted to 2.16%.

As for `CN(C)CCOCc1cncc2c1CCN(C1CCOC1)C2` (stereo not drawn), the cytotoxicity at 70.5 h was -4.13%.
